From patent US9005641B2, “Compositions and methods for preventing or reducing resistance of insects to insecticides” (Rothamsted Research Limited, priority 2002, dated 2015)

Assays:
[1] = tested on: pyrethroid-resistant H. armigera larvae; assay: Synergism studies: PBO pre-treatment before pyrethroid, larval mortality
Procedure: These involved a comparison of esterase inhibition (expressed as % of control, ± standard deviation) incurred by H. armigera larvae over time following topical application of 1 μl PBO (1%), and the effect on mortality of pyrethroid-resistant larvae when exposed to increasing PBO (1 μl, 1% PBO/larva) pre-treatment intervals before fenvalerate (1 μl, 0.125% fenvalerate/larva, FIG. 3) and zeta-cypermethrin (1 μl, 0.01% zeta-cypermethrin/larva, FIG. 4) exposure.

[2] = tested on: pyrethroid resistant second instar H. armigera larvae; assay: Field trial on cotton, night sprays; assay type: in vivo, Helicoverpa armigera; conditions: one day after treatment; lambdacyhalothrin 15 g a.i./ha, PBO 320 g a.i./ha; strain 20 fold resistant
Procedure: In the lack of H. armigera pressure on cotton, pyrethroid resistant second instar H. armigera larvae, which were the progeny a field strain originating from Queensland, were placed on cotton plant. The strain was 20 fold resistant to lambdacyhalothrin.
Insecticides were mixed with water.
The trial was conducted on replicated, 1 row×2 m plots. Each plot contained from 13-17 mature cotton plants. There was an unsprayed buffer of two rows between each plot. Just prior to sunset, ten second instar H. armigera larvae were placed onto the terminals of each plant in the test plots and the plots sprayed. H. armigera numbers per plant were assessed one day after treatment. Temperature ranged from 24-26° C. The mean percentage mortality and standard deviation were calculated for each treatment.

Q: Which “mortality (plateau)” value ([1]; 1 μl 0.125% fenvalerate/larva, PBO (1 μl, 1%) pre-treatment interval 4-5 hrs) does the source give for `CC(C)C(C(=O)OC(C#N)c1cccc(Oc2ccccc2)c1)c1ccc(Cl)cc1` (stereo not drawn) [fenvalerate, (R—(R*,S*)-4-chloro-α(1-methylethyl)benzeneacetic acid, cyano (3-phenoxyphenyl)methyl ester)] here?
A: 100%

Q: With `CC1(C)[C@H](C(=O)O[C@H](C#N)c2cccc(Oc3ccccc3)c2)[C@@H]1/C=C(\Cl)C(F)(F)F` [lambdacyhalothrin] as the compound, how does the “mortality / control of H. armigera” value [2] read?
A: ~40%

Q: For `CC1(C)C(C=C(Cl)Cl)C1C(=O)OC(C#N)c1cccc(Oc2ccccc2)c1` (racemic) [zeta-cypermethrin, (S)-cyano(3-phenoxyphenyl)-methyl(±)-cis-trans-3-(2,2,-dichloroethenyl)-2,2-dimethylcyclo-propanecarboxylate], which “mortality (plateau)” value ([1]; 1 μl 0.01% zeta-cypermethrin/larva, PBO (1 μl, 1%) pre-treatment interval 4-10 hrs) is on record?
A: 100%
